Laboratory results reported in US9695155B2, “Herbicidal substituted pyrimidinyloxy benzene compounds” (E. I. DU PONT DE NEMOURS AND COMPANY, priority 2013, dated 2017).

Columns and labels:
barnyardgrass [1] = assay: Test A preemergence; assay type: in vivo, Echinochloa crus-galli
In short: (§1)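 Injury scores run from 0, no effect, to 100, complete control, judged by eye against untreated plants roughly 10 days after treatment. Chemicals carried a surfactant in a non-phytotoxic solvent and went onto loam–sand soil preemergence or onto one- to two-leaf seedlings postemergence.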

large (Lg) crabgrass [2] = assay: Test A preemergence; assay type: in vivo, Digitaria sanguinalis
In short: as §1

giant foxtail [3] = assay: Test A preemergence; assay type: in vivo, Setaria faberii
In short: as §1

morningglory [4] = assay: Test A preemergence; assay type: in vivo, Ipomoea spp.
In short: as §1

pigweed [5] = assay: Test A preemergence; assay type: in vivo, Amaranthus retroflexus
In short: as §1

velvetleaf [6] = assay: Test A preemergence; assay type: in vivo, Abutilon theophrasti
In short: as §1

wheat [7] = assay: Test A preemergence; assay type: in vivo, Triticum aestivum
In short: as §1

corn [8] = assay: Test A preemergence; assay type: in vivo, Zea mays
In short: as §1

barnyardgrass [9] = assay: Test A postemergence; assay type: in vivo, Echinochloa crus-galli
In short: as §1

large (Lg) crabgrass [10] = assay: Test A postemergence; assay type: in vivo, Digitaria sanguinalis
In short: as §1

giant foxtail [11] = assay: Test A postemergence; assay type: in vivo, Setaria faberii
In short: as §1

morningglory [12] = assay: Test A postemergence; assay type: in vivo, Ipomoea spp.
In short: as §1

pigweed [13] = assay: Test A postemergence; assay type: in vivo, Amaranthus retroflexus
In short: as §1

velvetleaf [14] = assay: Test A postemergence; assay type: in vivo, Abutilon theophrasti
In short: as §1

wheat [15] = assay: Test A postemergence; assay type: in vivo, Triticum aestivum
In short: as §1

corn [16] = assay: Test A postemergence; assay type: in vivo, Zea mays
In short: as §1

rice = assay: Test B flooded paddy test; assay type: in vivo, Oryza sativa; details: Flood, 250 g ai/ha; 0 to 100 scale where 0 is no effect and 100 is complete control
In short: (§2)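 Evaluation is visual, against untreated controls, 13 to 15 days after treatment. Before treatment, plants reached the 2-leaf stage; pots were then flooded 3 cm deep, compound was added to the water, and that level was maintained. Ratings run 0 to 100, with 100 meaning complete control.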

sedge, umbrella = assay: Test B flooded paddy test; assay type: in vivo, Cyperus difformis; details: Flood, 250 g ai/ha; 0 to 100 scale where 0 is no effect and 100 is complete control
Protocol: (§3) Plant species in the flooded paddy test selected from rice (Oryza sativa), sedge, umbrella (small-flower umbrella sedge, Cyperus difformis), (Heteranthera limosa), and barnyardgrass (Echinochloa crus-galli) were grown to the 2-leaf stage for testing. At time of treatment, test pots were flooded to 3 cm above the soil surface, treated by application of test compounds directly to the paddy water, and then maintained at that water depth for the duration of the test. Treated plants and controls were maintained in a greenhouse for 13 to 15 days, after which time all species were compared to controls and visually evaluated. Plant response ratings, summarized in Table B, are based on a scale of 0 to 100 where 0 is no effect and 100 is complete control. A dash (-) response means no test result.

Heteranthera limosa = assay: Test B flooded paddy test; assay type: in vivo; details: Flood, 250 g ai/ha; 0 to 100 scale where 0 is no effect and 100 is complete control
In short: as §2

barnyardgrass [17] = assay: Test B flooded paddy test; assay type: in vivo, Echinochloa crus-galli; details: Flood, 250 g ai/ha; 0 to 100 scale where 0 is no effect and 100 is complete control
Protocol: as §3

[18] = 500 g ai/ha, 0 to 100 scale where 0 is no effect and 100 is complete control
[19] = 125 g ai/ha, 0 to 100 scale where 0 is no effect and 100 is complete control
[20] = 500 g ai/ha, 0 to 100 scale, 0 no effect, 100 complete control, approx. 10 days
[21] = 500 g ai/ha, 0 to 100 scale, 0 no effect, 100 complete control

O=Cc1cccc(Oc2ncc(Cl)cn2)c1-n1cc(I)cn1 [Compound 182]
Barnyardgrass plant response rating (0 to 100 scale, 0 is no effect, 100 is complete control) (barnyardgrass [1]; 125 g ai/ha): 0
Barnyardgrass plant response rating (barnyardgrass [1]; [18]): 20
Crabgrass, Large plant response rating (0 to 100 scale) (large (Lg) crabgrass [2]; 125 g ai/ha): 0
Crabgrass, Large plant response rating (large (Lg) crabgrass [2]; [18]): 30
Foxtail, Giant plant response rating (0 to 100 scale) (giant foxtail [3]; 125 g ai/ha): 0
Foxtail, Giant plant response rating (giant foxtail [3]; [18]): 20
Morningglory plant response rating (0 to 100 scale) (morningglory [4]; 125 g ai/ha): 0
Morningglory plant response rating (morningglory [4]; [18]): 0
Pigweed plant response rating (0 to 100 scale) (pigweed [5]; 125 g ai/ha): 90
Pigweed plant response rating (pigweed [5]; [18]): 100
Velvetleaf plant response rating (0 to 100 scale) (velvetleaf [6]; 125 g ai/ha): 0
Velvetleaf plant response rating (velvetleaf [6]; [18]): 0
Wheat plant response rating (0 to 100 scale) (wheat [7]; 125 g ai/ha): 0
Wheat plant response rating (wheat [7]; [18]): 0
Corn plant response rating (0 to 100 scale) (corn [8]; 125 g ai/ha): 0
Corn plant response rating (corn [8]; [18]): 0
Barnyardgrass plant response rating (barnyardgrass [9]; [19]): 0
Plant response rating, Barnyardgrass (barnyardgrass [9]; [18]): 0
Crabgrass, Large plant response rating (large (Lg) crabgrass [10]; [19]): 0
Plant response rating, Crabgrass, Large (large (Lg) crabgrass [10]; [18]): 0
Foxtail, Giant plant response rating (giant foxtail [11]; [19]): 0
Plant response rating, Foxtail, Giant (giant foxtail [11]; [18]): 0
Morningglory plant response rating (morningglory [12]; [19]): 0
Plant response rating, Morningglory (morningglory [12]; [18]): 0
Pigweed plant response rating (pigweed [13]; [19]): 30
Plant response rating, Pigweed (pigweed [13]; [18]): 90
Velvetleaf plant response rating (velvetleaf [14]; [19]): 30
Plant response rating, Velvetleaf (velvetleaf [14]; [18]): 30
Wheat plant response rating (wheat [15]; [19]): 0
Plant response rating, Wheat (wheat [15]; [18]): 0
Corn plant response rating (corn [16]; [19]): 0
Plant response rating, Corn (corn [16]; [18]): 0
Plant response rating, Rice (rice): 0
Plant response rating, Sedge, Umbrella (sedge, umbrella): 0
Plant response rating, Ducksalad (Heteranthera limosa): 0
Plant response rating, Barnyardgrass (barnyardgrass [17]): 0

N#Cc1cc(F)cc(Oc2ncc(Cl)cn2)c1-n1cc(Br)cn1 [Compound 238]
Barnyardgrass plant response rating (0 to 100 scale, 0 is no effect, 100 is complete control) (barnyardgrass [1]; 125 g ai/ha): 70
Barnyardgrass plant response rating (barnyardgrass [1]; [18]): 100
Crabgrass, Large plant response rating (0 to 100 scale) (large (Lg) crabgrass [2]; 125 g ai/ha): 100
Crabgrass, Large plant response rating (large (Lg) crabgrass [2]; [18]): 100
Foxtail, Giant plant response rating (0 to 100 scale) (giant foxtail [3]; 125 g ai/ha): 100
Foxtail, Giant plant response rating (giant foxtail [3]; [18]): 100
Morningglory plant response rating (0 to 100 scale) (morningglory [4]; 125 g ai/ha): 10
Morningglory plant response rating (morningglory [4]; [18]): 100
Pigweed plant response rating (0 to 100 scale) (pigweed [5]; 125 g ai/ha): 100
Pigweed plant response rating (pigweed [5]; [18]): 100
Velvetleaf plant response rating (0 to 100 scale) (velvetleaf [6]; 125 g ai/ha): 70
Velvetleaf plant response rating (velvetleaf [6]; [18]): 90
Wheat plant response rating (0 to 100 scale) (wheat [7]; 125 g ai/ha): 0
Wheat plant response rating (wheat [7]; [18]): 30
Corn plant response rating (0 to 100 scale) (corn [8]; 125 g ai/ha): 0
Corn plant response rating (corn [8]; [18]): 90
Barnyardgrass plant response rating (barnyardgrass [9]; [19]): 40
Plant response rating, Barnyardgrass (barnyardgrass [9]; [18]): 100
Crabgrass, Large plant response rating (large (Lg) crabgrass [10]; [19]): 60
Plant response rating, Crabgrass, Large (large (Lg) crabgrass [10]; [18]): 90
Foxtail, Giant plant response rating (giant foxtail [11]; [19]): 60
Plant response rating, Foxtail, Giant (giant foxtail [11]; [18]): 90
Morningglory plant response rating (morningglory [12]; [19]): 40
Plant response rating, Morningglory (morningglory [12]; [18]): 60
Pigweed plant response rating (pigweed [13]; [19]): 100
Plant response rating, Pigweed (pigweed [13]; [18]): 100
Velvetleaf plant response rating (velvetleaf [14]; [19]): 60
Plant response rating, Velvetleaf (velvetleaf [14]; [18]): 100
Wheat plant response rating (wheat [15]; [19]): 0
Plant response rating, Wheat (wheat [15]; [18]): 60
Corn plant response rating (corn [16]; [19]): 0
Plant response rating, Corn (corn [16]; [18]): 80
Plant response rating, Rice (rice): 0
Plant response rating, Sedge, Umbrella (sedge, umbrella): 90
Plant response rating, Ducksalad (Heteranthera limosa): 70
Plant response rating, Barnyardgrass (barnyardgrass [17]): 0

Cc1cnc(Oc2ccccc2-n2cc(Br)cn2)nc1 [Compound 9]
Barnyardgrass plant response rating (barnyardgrass [1]; [19]): 30
Barnyardgrass plant response rating (barnyardgrass [1]; [20]): 100
Crabgrass, Large plant response rating (large (Lg) crabgrass [2]; [19]): 90
Crabgrass, Large plant response rating (large (Lg) crabgrass [2]; [20]): 100
Foxtail, Giant plant response rating (giant foxtail [3]; [19]): 80
Foxtail, Giant plant response rating (giant foxtail [3]; [20]): 90
Morningglory plant response rating (morningglory [4]; [19]): 0
Morningglory plant response rating (morningglory [4]; [20]): 0
Pigweed plant response rating (pigweed [5]; [19]): 100
Pigweed plant response rating (pigweed [5]; [20]): 100
Velvetleaf plant response rating (velvetleaf [6]; [19]): 80
Velvetleaf plant response rating (velvetleaf [6]; [20]): 100
Wheat plant response rating (wheat [7]; [19]): 0
Wheat plant response rating (wheat [7]; [20]): 0
Corn plant response rating (corn [8]; [19]): 0
Corn plant response rating (corn [8]; [20]): 20
Plant response rating, Barnyardgrass (barnyardgrass [9]; [19]): 30
Plant response rating, Barnyardgrass (barnyardgrass [9]; [21]): 90
Plant response rating, Crabgrass, Large (large (Lg) crabgrass [10]; [19]): 30
Plant response rating, Crabgrass, Large (large (Lg) crabgrass [10]; [21]): 80
Plant response rating, Foxtail, Giant (giant foxtail [11]; [19]): 30
Plant response rating, Foxtail, Giant (giant foxtail [11]; [21]): 90
Plant response rating, Morningglory (morningglory [12]; [19]): 20
Plant response rating, Morningglory (morningglory [12]; [21]): 30
Plant response rating, Pigweed (pigweed [13]; [19]): 80
Plant response rating, Pigweed (pigweed [13]; [21]): 90
Plant response rating, Velvetleaf (velvetleaf [14]; [19]): 100
Plant response rating, Velvetleaf (velvetleaf [14]; [21]): 100
Plant response rating, Wheat (wheat [15]; [19]): 0
Plant response rating, Wheat (wheat [15]; [21]): 30
Plant response rating, Corn (corn [16]; [19]): 20
Plant response rating, Corn (corn [16]; [21]): 50
Plant response rating, Rice (rice): 0
Plant response rating, Sedge, Umbrella (sedge, umbrella): 60
Plant response rating, Ducksalad (Heteranthera limosa): 80
Plant response rating, Barnyardgrass (barnyardgrass [17]): 0
